# Test results as given in patent publication US9181199B2, “Uracil derivatives and use thereof” (RESprotect GmbH, priority 2008, dated 2015).
smiles,measurement,value
C[Si](C)(C)C#Cc1cn(Cc2ccccc2)c(=O)[nH]c1=O,melting point,213 to 215 °C
"O=c1c(C=CBr)cn(C(c2ccccc2)c2ccccc2)c(=O)n1Cc1ccccc1 [compound A, 1-Benzhydryl-3-benzyl-5-(2-bromovinyl)uracil]",melting point,131 °C
"O=c1[nH]c(=O)n(Cc2ccccc2)cc1C=CBr [compound B, 1-Benzyl-5-(2-bromovinyl)uracil]",melting point,183 °C
"C=CCn1cc(C=CBr)c(=O)[nH]c1=O [compound C, 1-Allyl-5-(2-bromovinyl)uracil]",melting point,137 °C
"O=c1[nH]c(=O)n(Cc2ccccc2)cc1C#CBr [compound D, 1-Benzyl-5-bromoethynyluracil]",melting point,162 to 165 °C
"O=c1[nH]c(=O)n(C(c2ccccc2)c2ccccc2)cc1-c1c[nH]nn1 [compound F, 1-Benzhydryl-5-(1H-1,2,3-triazol-4-yl)uracil]",melting point,165 °C
"N#CC=Cc1cn(C(c2ccccc2)c2ccccc2)c(=O)[nH]c1=O [compound G, 1-Benzhydryl-5-(2-cyanovinyl)uracil]",melting point,261 °C
"C=CCn1cc(C=C(Br)Br)c(=O)[nH]c1=O [compound H, 1-Allyl-5-(2,2-dibromovinyl)uracil]",melting point,154 to 156 °C
"C=CCn1cc(C#CBr)c(=O)[nH]c1=O [compound I, 1-Allyl-5-bromoethynyluracil]",melting point,164 to 168 °C
"O=c1[nH]c(=O)n(Cc2ccccc2)cc1C=C(Br)Br [compound L, 1-Benzyl-5-(2,2-dibromovinyl)uracil]",melting point,205 to 206 °C
"CC(c1ccccc1)n1cc(C=C(Br)Br)c(=O)[nH]c1=O (stereo not shown) [compound M, 1-(1-Phenylethyl)-5-(2,2-dibromovinyl)uracil]",melting point,179 to 183 °C
"CC(c1ccccc1)n1cc(C#CBr)c(=O)[nH]c1=O (stereo not shown) [compound N, 1-(1-Phenylethyl)-5-bromoethynyluracil]",melting point,163 to 167 °C
"C#Cc1cn(Cc2ccccc2)c(=O)[nH]c1=O [compound R, 1-Benzyl-5-ethynyluracil]",melting point,190 to 193 °C
